From patent publication US8450313B2, “2,3-diaryl- or heteroaryl-substituted 1,1,1-trifluoro-2-hydroxypropyl compounds” (Hoffmann-La Roche Inc., priority 2009, dated 2013)

Target: T1, full length human recombinant glucocorticoid receptor (Homo sapiens, UniProt P04150)
T1 construct: It contains some partially purified full length human recombinant glucocorticoid receptor; purchased Panvera/Invitrogen PV4302
T1 sequence (P04150 1-777): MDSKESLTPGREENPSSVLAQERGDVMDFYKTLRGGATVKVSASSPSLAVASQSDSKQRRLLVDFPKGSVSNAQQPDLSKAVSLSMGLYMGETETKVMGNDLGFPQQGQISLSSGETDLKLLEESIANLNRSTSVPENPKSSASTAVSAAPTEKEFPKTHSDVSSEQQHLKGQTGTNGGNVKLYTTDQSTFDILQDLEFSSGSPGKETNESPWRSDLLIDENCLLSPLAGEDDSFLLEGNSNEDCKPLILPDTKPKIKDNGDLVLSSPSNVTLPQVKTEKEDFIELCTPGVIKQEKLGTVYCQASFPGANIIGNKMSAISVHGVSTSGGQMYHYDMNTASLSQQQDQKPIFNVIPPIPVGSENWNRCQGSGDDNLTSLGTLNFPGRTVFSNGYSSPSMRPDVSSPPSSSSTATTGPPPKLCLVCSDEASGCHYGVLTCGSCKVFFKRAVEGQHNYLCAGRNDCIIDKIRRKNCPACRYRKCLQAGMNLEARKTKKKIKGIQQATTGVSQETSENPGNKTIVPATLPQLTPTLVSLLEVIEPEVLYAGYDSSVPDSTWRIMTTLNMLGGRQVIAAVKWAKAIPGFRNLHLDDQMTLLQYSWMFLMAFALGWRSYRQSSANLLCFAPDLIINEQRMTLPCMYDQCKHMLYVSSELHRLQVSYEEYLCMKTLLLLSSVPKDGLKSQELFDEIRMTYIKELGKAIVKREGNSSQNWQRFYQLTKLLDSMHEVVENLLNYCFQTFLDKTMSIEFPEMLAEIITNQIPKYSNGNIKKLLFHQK
Assay: Glucocorticoid Receptor Binding Assay (Glucocorticoid Receptor Competitor Assay far red kit, fluorescence polarization)
Conditions: competition with fluorescent GR ligand Fluormone GS Far Red, 3 hours at 22° C., pH 7.4; Ki calculated from IC50 by Cheng-Prusoff
How it was run: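 Compounds in serial dilution (from intermediate 4.2% DMSO stock) displace Fluormone GS Far Red from full-length human recombinant GR with stabilizing peptide, pH 7.4, incubated 3 hours at 22° C dark. Polarized fluorescence (610–660 nm) gives IC50 via sigmoidal fit, converted to Ki by Cheng-Prusoff.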

Ki | Compound
1.3 nM | C[C@H](c1ccc(Oc2ccc(C(=O)O)c(F)c2)cc1Cl)[C@@](O)(c1ccc2c(c1)N(C)C(=O)CO2)C(F)(F)F [Example 57]
2.1 nM | C[C@H](c1ccc(Oc2cc(C(F)(F)F)c(C(=O)O)cn2)cc1Cl)[C@@](O)(c1ccc2c(c1)N(C)C(=O)CO2)C(F)(F)F [Example 62]
7.3 nM | CC(c1ccc(-c2ccc(C(=O)O)c(F)c2)cc1Cl)C(O)(c1ccc2c(c1)n(C)c(=O)n2C)C(F)(F)F (stereo not drawn) [Example 73, 3′-Chloro-4′-[2-(1,3-dimethyl-2-oxo-2,3-dihydro-1H-benzoimidazol-5-yl)-3,3,3-trifluoro-2-hydroxy-1-methyl-propyl]-3-fluoro-biphenyl-4-carboxylic acid]
1.9 nM | CC(c1ccc(-c2ccc(OCC(=O)O)cc2)cc1Cl)C(O)(c1ccc2c(c1)n(C)c(=O)n2C)C(F)(F)F (stereo not drawn) [Example 75, {3′-Chloro-4′-[2-(1,3-dimethyl-2-oxo-2,3-dihydro-1H-benzoimidazol-5-yl)-3,3,3-trifluoro-2-hydroxy-1-methyl-propyl]-biphenyl-4-yloxy}-acetic acid]
0.8 nM | CC(c1ccc(O)cc1Cl)C(O)(c1ccc2c(c1)n(C)c(=O)n2C)C(F)(F)F (stereo not drawn) [Example 85, 5-[2-(2-Chloro-4-hydroxy-phenyl)-1-hydroxy-1-trifluoromethyl-propyl]-1,3-dimethyl-1,3-dihydro-benzoimidazol-2-one]
2.7 nM | CC(c1ccc(Oc2ccc(C(=O)O)cc2F)cc1Cl)C(O)(c1ccc2c(c1)n(C)c(=O)n2C)C(F)(F)F (stereo not drawn) [Example 86, 4-{3-Chloro-4-[2-(1,3-dimethyl-2-oxo-2,3-dihydro-1H-benzoimidazol-5-yl)-3,3,3-trifluoro-2-hydroxy-1-methyl-propyl]-phenoxy}-3-fluoro-benzoic acid]
3.7 nM | CC(c1ccc(Oc2ccc(C(=O)O)cc2Cl)cc1Cl)C(O)(c1ccc2c(c1)n(C)c(=O)n2C)C(F)(F)F (stereo not drawn) [Example 87, 3-Chloro-4-{3-chloro-4-[2-(1,3-dimethyl-2-oxo-2,3-dihydro-1H-benzoimidazol-5-yl)-3,3,3-trifluoro-2-hydroxy-1-methyl-propyl]-phenoxy}-benzoic acid]
0.3 nM | CC(c1ccc(Oc2ccc(F)c(C(=O)O)c2)cc1Cl)C(O)(c1ccc2c(c1)n(C)c(=O)n2C)C(F)(F)F (stereo not drawn) [Example 91, 5-{3-Chloro-4-[2-(1,3-dimethyl-2-oxo-2,3-dihydro-1H-benzoimidazol-5-yl)-3,3,3-trifluoro-2-hydroxy-1-methyl-propyl]phenoxy}-2-fluoro-benzoic acid]
0.3 nM | C[C@@H](c1ccc(-c2ccc(C(=O)O)c(F)c2)cc1Cl)[C@](O)(c1ccc2oc(=O)n(C)c2c1)C(F)(F)F [Example 119, 3′-Chloro-3-fluoro-4′-[(1S,2S)-3,3,3-trifluoro-2-hydroxy-1-methyl-2-(3-methyl-2-oxo-2,3-dihydro-benzooxazol-5-yl)-propyl]-biphenyl-4-carboxylic acid]
46 nM | C[C@H](c1ccc(-c2ccc(C(=O)O)c(F)c2)cc1Cl)[C@@](O)(c1ccc2oc(=O)n(C)c2c1)C(F)(F)F [Example 120, 3′-Chloro-3-fluoro-4′-[(1R,2R)-3,3,3-trifluoro-2-hydroxy-1-methyl-2-(3-methyl-2-oxo-2,3-dihydro-benzooxazol-5-yl)-propyl]-biphenyl-4-carboxylic acid]
192 nM | CC(c1ccc(Oc2ccc(C(=O)O)c(Cl)c2)cc1Cl)C(O)(c1ccc(C#N)cc1)C(F)(F)F (stereo not drawn) [Example 156, 2-Chloro-4-{3-chloro-4-[2-(4-cyano-phenyl)-3,3,3-trifluoro-2-hydroxy-1-methyl-propyl]-phenoxy}-benzoic acid]
119 nM | C[C@H](c1ccc(Oc2ccc(C(=O)O)c(Cl)c2)cc1Cl)[C@@](O)(c1ccc2c(c1)N(C)C(=O)CO2)C(F)(F)F [Example 218, 2-Chloro-4-{3-chloro-4-[(1R,2R)-3,3,3-trifluoro-2-hydroxy-1-methyl-2-(4-methyl-3-oxo-3,4-dihydro-2H-benzo[1,4]oxazin-6-yl)-propyl]-phenoxy}-benzoic acid]
0.8 nM | C[C@@H](c1ccc(Oc2ccc(C(=O)O)c(Cl)c2)cc1Cl)[C@](O)(c1ccc2c(c1)N(C)C(=O)CO2)C(F)(F)F [Example 219, 2-Chloro-4-{3-chloro-4-[(1S,2S)-3,3,3-trifluoro-2-hydroxy-1-methyl-2-(4-methyl-3-oxo-3,4-dihydro-2H-benzo[1,4]oxazin-6-yl)-propyl]-phenoxy}-benzoic acid]
552 nM | C[C@H](c1ccc(Oc2ncc(C(=O)O)cc2Cl)cc1Cl)[C@@](O)(c1ccc2c(c1)N(C)C(=O)CO2)C(F)(F)F [Example 223, 5-Chloro-6-{3-chloro-4-[(1R,2R)-3,3,3-trifluoro-2-hydroxy-1-methyl-2-(4-methyl-3-oxo-3,4-dihydro-2H-benzo[1,4]oxazin-6-yl)-propyl]-phenoxy}-nicotinic acid]
0.8 nM | C[C@@H](c1ccc(Oc2ncc(C(=O)O)cc2Cl)cc1Cl)[C@](O)(c1ccc2c(c1)N(C)C(=O)CO2)C(F)(F)F [Example 224, 5-Chloro-6-{3-chloro-4-[(1S,2S)-3,3,3-trifluoro-2-hydroxy-1-methyl-2-(4-methyl-3-oxo-3,4-dihydro-2H-benzo[1,4]oxazin-6-yl)-propyl]-phenoxy}-nicotinic acid]
